Where two headings read alike, the source gives them in different places.
Legend:
[1] = tested on: Sprague-Dawley rats; assay: Drug discrimination in the rat (5-MeO-DMT cue); assay type: in vivo; details: for dose required to show generalization to the 5-MeO-DMT cue: oral administration; for ED50: Rattus norvegicus, read-out: ED50, generalization to the 5-MeO-DMT cue
Method: Male Sprague-Dawley rats were initially food restricted by presentation of 18-20 g food at day end (single housing). After 7 days acclimatisation to the food restriction procedure, they were trained daily to lever press for food (45 mg Bioserve pellet) in standard 2-lever operant conditioning chambers controlled by Med-PC software over a period of 1 week (Med. Associates Ins., St. Albans, VT). The rats were trained to lever press for food to an FR10 value (i.e 10 lever presses for a single food reward). Once stable food responding was acquired to both response levers, discrimination training began. […] Training sessions lasted 30-min or until the delivery of 50 pellets and continued until the animals attained appropriate stimulus control (defined as six consecutive sessions where animals made no more than 16 lever presses before the delivery of the first reward, and at least 95% total responses on the appropriate lever). The rats continued to receive daily food ration in their home cage at day end.
Once trained, tests of substitution were conducted. […] Test sessions continued until 50 pellets had been obtained or 30 min had elapsed. During these sessions response rate was also measured.

[2] = tested on: C57BL/6J mice; assay: Mouse head twitch; assay type: in vivo; details: for duration of HT expression: at 10-30 mg/kg; for head twitch response: doses of up to 30 mg/kg
Method: (§1) The effect of different doses of representative compounds of Formula I were evaluated on head-twitch response (HTR) and other behavioural responses indicative of serotonin syndrome as behavior-based models of psychedelic activity.
Male, C57BL/6J mice (body weight range 20-30 g) were dosed with the appropriate dose of test article, and following a 1-minute pre-treatment time, placed in individual observation chambers. Animals were visually assessed for the incidence head twitches continuously over a 1 hr period. Head twitches were defined as a rapid jerk of the head which was not elicited by an external tactile stimulus (Come and Pickering, Psychopharmacologia, 1967, 11(1): 65-78). Each head twitch was individually counted by a trained observer, and the data expressed as the mean+SEM of 6-10 mice per group. Mice were used in a single experiment only.

[3] = tested on: mice; assay: Mouse locomotor activity and rearing assay; details: 1-30 mg/kg, compared with 5-MeO-DMT
[4] = molecular target: human 5-HT2A receptor (Homo sapiens (Human), UniProt P28223); assay: Human 5-HT2A radioligand binding assay ([3H]-ketanserin)
[5] = tested on: mice; assay: Mouse 5-HT syndrome assay; assay type: in vivo; details: for signs of 5-HT syndrome: doses of up to 30 mg/kg
Method: as §1

[6] = Liver microsomes stability, human; details: for Remaining Percentage (%): Human
Method: (§2) The objective of this study was to estimate in vitro metabolic stability of representative compounds of the application in pooled human and male mouse liver microsomes. The concentrations of parent compounds in reaction systems were evaluated by LC-MS/MS for estimating the stability in pooled human and male mouse liver microsomes. The in vitro intrinsic clearances of test compounds were determined as well.
(§3) A master solution in the “Incubation Plate” containing phosphate buffer, ultra-pure H2O, MgCl2 solution and liver microsomes was made according to Table 3. The mixture was pre-warmed at 37° C. water bath for 5 minutes.
(§4) 40 μL of 10 mM NADPH solution was added to each well. The final concentration of NADPH was 1 mM. The negative control samples were prepared by replacing NADPH with 40 μL of ultra-pure H2O. Samples were prepared in duplicate. Negative controls were prepared in singlet.
(§5) The reaction was started with the addition of 4 μL of 200 μM test compounds or control compounds to each master solution to get the final concentration of 2 μM. This study was performed in duplicate.
(§6) Aliquots of 50 μL were taken from the reaction solution at 0, 15, 30, 45 and 60 minutes. The reaction solutions were stopped by the addition of 4 volumes of cold methanol with IS (100 nM alprazolam, 200 nM imipramine, 200 nM labetalol and 2 μM ketoprofen). Samples were centrifuged at 3,220 g for 40 minutes. Aliquot of 90 μL of the supernatant was mixed with 90 μL of ultra-pure H2O and then was used for LC-MS/MS analysis.
(§7) LC/MS analysis was performed for all samples from this study using a Shimadzu liquid chromatograph separation system equipped with degasser DGU-20A5R; solvent delivery unit LC-30AD; system controller SIL-30AC; column oven CTO-30A; CTC Analytics HTC PAL System. Mass spectrometric analysis was performed using an Triple Quad™ 5500 instrument.
(§8) All calculations were carried out using Microsoft Excel. Peak area ratios of test compound to internal standard (listed in the below table) were determined from extracted ion chromatograms.
(§9) All calculations were carried out using Microsoft Excel. Peak areas were determined from extracted ion chromatograms. The slope value, k, was determined by linear regression of the natural logarithm of the remaining percentage of the parent drug vs. incubation time curve.
(§10) The in vitro half-life (in vitro t1/2) was determined from the slope value:
(§11) Conversion of the in vitro t1/2(min) into the in vitro intrinsic clearance (in vitro CLint, in μL/min/mg proteins) was done using the following equation (mean of duplicate determinations): […]

[7] = Liver microsomes stability, mouse; details: for Remaining Percentage (%): Mouse
Method: as §2, §3, §4, §5, §6, §7, §8, §9, §10, §11

[8] = Liver microsomes stability, dog; details: for Remaining Percentage (%): Dog
[9] = Liver microsomes stability, rat; details: for Remaining Percentage (%): Rat
Method: as §2, §3, §4, §5, §6, §7, §8, §9, §10, §11

COc1ccc2[nH]cc(CCN(C)C)c2c1 [Compound 5-MeO-DMT, 5-methoxy-dimethoxytryptamine, reference compound]
ED50, generalization to the 5-MeO-DMT cue ([1]; SC administration, FIG. 8): ~0.2 mg/kg | dose required to show generalization to the 5-MeO-DMT cue ([1]; FIG. 8): 10 mg/kg | ED50, head twitch response ([2]; mouse, SC): 8 mg/kg | duration of HT expression ([2]; mouse): 0 to 20 min

CCCCC/C=C\C/C=C\CCCCCCCC(=O)n1cc(CCN(C)C)c2cc(OC)ccc21 [Compound I-1, (9Z,12Z)-1-(3-(2-(Dimethylamino)ethyl)-5-methoxy-1H-indol-1-yl)octadeca-9,12-dien-1-one]
motor activity or rearing [3]: did not reduce motor activity or rearing to the same extent as 5-MeO-DMT | IC50 [4]: < 2000 nM | signs of 5-HT syndrome (whole body twitches, FPT, Straub tail) ([5]; up to 60 mg/kg SC): did not induce signs of 5-HT syndrome | head twitch response expression ([2]; mouse, 1-60 mg/kg SC): robust head twitch response | ED50 ([2]; mouse, SC, read-out: ED50, head twitch response): 2.8 mg/kg | duration of HT expression ([2]; mouse): 0 to 30 min

[2H]C([2H])(c1cn(C(=O)CCCCCCC/C=C\C/C=C\CCCCC)c2ccccc12)[C@H]1CCCN1C([2H])([2H])[2H] [Compound I-2, (9Z,12Z)-1-(3-(((R)-1-(Methyl-d3)pyrrolidin-2-yl)methyl-d2)-1H-indol-1-yl)octadeca-9,12-dien-1-one]
Predicted hepatic CL ([6]; Human liver microsomes): 5.79 mL/min/kg | Remaining Percentage (%) ([6]; With NADPH, 0 min): 100.00% | Remaining Percentage (%) ([6]; With NADPH, 30 min): 87.61% | Remaining Percentage (%) ([6]; With NADPH, 60 min): 82.52% | Remaining Percentage (%) ([6]; Without NADPH, 0 min): 100.00% | Remaining Percentage (%) ([6]; Without NADPH, 30 min): 114.91% | Remaining Percentage (%) ([6]; Without NADPH, 60 min): 83.75% | CLint scaled at 2 μM ([6]; human, microsomes): 8.03 mL/min/kg | half-life at 2 μM ([6]; human, microsomes): 216 min | microsomal CLint at 2 μM ([6]; human, microsomes): 6.4 µL/min/mg | Predicted hepatic CL ([7]; Mouse liver microsomes): 50.97 mL/min/kg | Remaining Percentage (%) ([7]; With NADPH, 0 min): 100.00% | Remaining Percentage (%) ([7]; With NADPH, 30 min): 71.53% | Remaining Percentage (%) ([7]; With NADPH, 60 min): 44.66% | Remaining Percentage (%) ([7]; Without NADPH, 0 min): 100.00% | Remaining Percentage (%) ([7]; Without NADPH, 30 min): 95.81% | Remaining Percentage (%) ([7]; Without NADPH, 60 min): 80.93% | CLint scaled at 2 μM ([7]; male, mouse, microsomes): 118 mL/min/kg | half-life at 2 μM ([7]; male, mouse, microsomes): 51.6 min | microsomal CLint at 2 μM ([7]; male, mouse, microsomes): 26.9 µL/min/mg | ED50 [1]: ~30 mg/kg | level of partial generalization to the 5-MeO-DMT cue ([1]; rats trained to 1 mg/kg 5-MeO-DMT vs saline, FIG. 7): ~60% | Predicted hepatic CL ([8]; Dog liver microsomes): 22.14 mL/min/kg | Remaining Percentage (%) ([8]; With NADPH, 0 min): 100.00% | Remaining Percentage (%) ([8]; With NADPH, 30 min): 66.91% | Remaining Percentage (%) ([8]; With NADPH, 60 min): 39.08% | Remaining Percentage (%) ([8]; Without NADPH, 0 min): 100.00% | Remaining Percentage (%) ([8]; Without NADPH, 30 min): 94.42% | Remaining Percentage (%) ([8]; Without NADPH, 60 min): 91.63% | CLint scaled at 2 μM ([8]; dog, microsomes): 78.1 mL/min/kg | half-life at 2 μM ([8]; dog, microsomes): 44.3 min | microsomal CLint at 2 μM ([8]; dog, microsomes): 31.3 µL/min/mg | IC50 [4]: < 2000 nM | Predicted hepatic CL ([9]; Rat liver microsomes): 27.34 mL/min/kg | Remaining Percentage (%) ([9]; With NADPH, 0 min): 100.00% | Remaining Percentage (%) ([9]; With NADPH, 30 min): 56.08% | Remaining Percentage (%) ([9]; With NADPH, 60 min): 40.37% | Remaining Percentage (%) ([9]; Without NADPH, 0 min): 100.00% | Remaining Percentage (%) ([9]; Without NADPH, 30 min): 94.64% | Remaining Percentage (%) ([9]; Without NADPH, 60 min): 84.47% | CLint scaled at 2 μM ([9]; rat, microsomes): 54.2 mL/min/kg | half-life at 2 μM ([9]; rat, microsomes): 45.8 min | microsomal CLint at 2 μM ([9]; rat, microsomes): 30.2 µL/min/mg | signs of 5-HT syndrome [5]: no signs of 5-HT syndrome | head twitch response ([2]; mouse): robust head twitch response

[2H]C([2H])(c1cn(C(=O)CCCCCCC/C=C\C/C=C\CCCCC)c2ccc(OC)cc12)[C@H]1CCCN1C([2H])([2H])[2H] [Compound I-3, (9Z,12Z)-1-(5-Methoxy-3-(((R)-1-(methyl-d3)pyrrolidin-2-yl)methyl-d2)-1H-indol-1-yl)octadeca-9,12-dien-1-one]
ED50 ([1]; SC administration, FIG. 8): ~6 mg/kg | dose required to show generalization to the 5-MeO-DMT cue ([1]; FIG. 8): 100 mg/kg | IC50 [4]: < 2000 nM | signs of 5-HT syndrome [5]: no signs of 5-HT syndrome | head twitch response ([2]; mouse): robust head twitch response

COc1cccc([C@H](O)C2CCN(CCc3ccc(F)cc3)CC2)c1OC [Compound M100907, reference compound]
effect of antagonist pretreatment on HTR induced by I-1 ([2]; mice pretreated with M100907 prior to I-1): completely blocked
